Assay: Inhibitory activity against Phenylalanine Ammonia-lyase (PAL)

Ki [µM]	SMILES
520	O=C(O)/C=C/c1ccc(C2(C(F)(F)F)N=N2)cc1OCCOCCOCCNC(=O)CCCC[C@@H]1SCC2NC(=O)NC21 (some centres not stated)
240	COc1cc(C2(C(F)(F)F)N=N2)ccc1/C=C/C(=O)O

— ChEMBL document CHEMBL1133145, “Novel photoreactive cinnamic acid analogues to elucidate phenylalanine ammonia-lyase” (Bioorg Med Chem Lett, 2000)
